Measured values published in patent US20040076974A1, “Liver necrosis predictive genes” (priority 2002, published 2004).
Like-named read-outs stand apart in the source and are kept apart here.

Tests used:
[1] = system: Sprague Dawley rats; conditions: rat, in vivo; for Liver Necrosis / Score (histopathology liver necrosis severity score): ip
How it was run: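 Toxicity calls (necrosis present or absent at 72 h) and histopathology scores were correlated with tissue gene expression from Crl:CD Sprague Dawley rats. Animals, usually 3 treated with compound by i.p. route and 3 given vehicle, were killed at 6, 24 or 72 h and tissues frozen immediately in liquid nitrogen.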

[2] = system: toxicologically relevant rat genes (rat CT array); conditions: rat, in vivo

CN(C)[C@@H]1C(O)=C(C(N)=O)C(=O)[C@@]2(O)C(O)=C3C(=O)c4c(O)cccc4[C@@](C)(O)[C@H]3C[C@@H]12 [tetracycline]
toxicity at the high dose [1]: produced toxicity
toxicity at the low dose [1]: not at the low dose
Liver Necrosis ([1]; 50 mg/kg): no
Score (histopathology liver necrosis severity score) ([1]; 50 mg/kg): 1
Liver Necrosis ([1]; 150 mg/kg): Yes
Score (histopathology liver necrosis severity score) ([1]; 150 mg/kg): 2
14-3-3 zeta expression [2]: 0.7335
60S ribosomal protein L6 expression [2]: 1.38
Adenine nucleotide translocator 1 expression [2]: 1.332
Alpha-1 microglobulin/bikunin precursor (Ambp) expression [2]: 1.73
Alpha-2-macroglobulin, sequence 2 expression [2]: 1.2
Alpha-2-microglobulin expression [2]: 0.5107
Alpha-prothymosin expression [2]: 1.454
Alpha-tubulin expression [2]: 0.9701
Apolipoprotein AII expression [2]: 0.2962
Apolipoprotein C1 expression [2]: 1.791
Aquaporin-3 (AQP3) expression [2]: 0.9307
Beta-actin expression [2]: 0.78
Beta-actin, sequence 2 expression [2]: 0.5941
Beta-tubulin, class I expression [2]: 0.7321
Betaine homocysteine methyltransferase (BHMT) expression [2]: 0.2575
Biliverdin reductase expression [2]: 0.7455
CDK108 expression [2]: 0.7153
Calpactin I heavy chain expression [2]: 1.165
Calpain 2 expression [2]: 1.216
Cathepsin L, sequence 2 expression [2]: 1.097
Cathepsin S expression [2]: 1.473
Cholesterol esterase expression [2]: 0.955
Cofilin expression [2]: 1.77
Collagen type II expression [2]: 1.355
Cyclin D1 expression [2]: 1.265
Cystatin C expression [2]: 1.57
Cytochrome P450 2A3 expression [2]: 0.8495
Cytochrome P450 2C11 expression [2]: 0.8002
Cytochrome P450 2C23 expression [2]: 1.592
Dynamin-1 (D100) expression [2]: 0.9613
Elongation factor-1 alpha expression [2]: 1.049
Equilbrative nitrobenzylthioinosine-sensitive nucleoside transporter expression [2]: 1.39
F1-ATPase beta subunit expression [2]: 1.072
Fatty acid synthase expression [2]: 0.837
Gamma-actin, cytoplasmic expression [2]: 1.057
Glutathione S-transferase theta-1 expression [2]: 1.085
Glycine methyltransferase expression [2]: 0.5811
Heme oxygenase expression [2]: 1.421
High affinity IgE receptor gamma chain (FcERIgamma) expression [2]: 1.193
Hypoxanthine-guanine phosphoribosyltransferase expression [2]: 0.7473
IgE binding protein expression [2]: 1.055
Insulin-like growth factor I, exon 6 expression [2]: 0.8256
JNK1 stress activated protein kinase expression [2]: 0.6582
Melanoma-associated antigen ME491 expression [2]: 1.77
Multidrug resistant protein-1 expression [2]: 1.041
Multidrug resistant protein-2 expression [2]: 0.8907
N-hydroxy-2-acetylaminofluorene sulfotransferase (ST1C1) expression [2]: 1.531
NADP-dependent isocitrate dehydrogenase, cytosolic expression [2]: 1.608
NIPK expression [2]: 0.7421
Nucleoside diphosphate kinase beta isoform expression [2]: 1.032
Organic cation transporter 3 expression [2]: 1.233
Ornithine decarboxylase expression [2]: 0.9438
Osteoactivin expression [2]: 1.112
Paraoxonase 1 expression [2]: 2.144
Phase-1 RCT-24 expression [2]: 0.8327
Phase-1 RCT-36 expression [2]: 0.8652
Phase-1 RCT-43 expression [2]: 1.003
Phase-1 RCT-58 expression [2]: 1.737
Phase-1 RCT-109 expression [2]: 0.5933
Phase-1 RCT-117 expression [2]: 0.8447
Phase-1 RCT-146 expression [2]: 0.9475
Phase-1 RCT-149 expression [2]: 0.6559
Phase-1 RCT-173 expression [2]: 0.5698
Phase-1 RCT-179 expression [2]: 1.528
Phase-1 RCT-207 expression [2]: 0.6995
Phase-1 RCT-211 expression [2]: 0.6151
Phase-1 RCT-227 expression [2]: 1.846
Phase-1 RCT-290 expression [2]: 0.417
Poly(ADP-ribose) polymerase expression [2]: 0.9896
Presenilin-1 expression [2]: 2.114
Protein tyrosine phosphatase, receptor type, D expression [2]: 1.295
Pyruvate kinase, muscle expression [2]: 0.6785
Ribosomal protein L13A expression [2]: 0.6452
Ribosomal protein S9 expression [2]: 1.161
Ribosomal protein S17 expression [2]: 1.358
Stathmin expression [2]: 0.7954
Stearyl-CoA desaturase, liver expression [2]: 0.1376
Thioredoxin-1 (Trx1) expression [2]: 0.7172
Thymosin beta-10 expression [2]: 0.6534
Tissue plasminogen activator expression [2]: 0.9708
Transitional endoplasmic reticulum ATPase expression [2]: 1.373
Ubiquitin conjugating enzyme (RAD 6 homologue) expression [2]: 1.177
Uncoupling protein 2 expression [2]: 0.7333
Zinc finger protein expression [2]: 1.116
alpha-1,2-fucosyltransferase expression [2]: 0.495
p55CDC expression [2]: 0.9757
{Phase-1 RCT 98} expression [2]: 1.16
{Ribosomal protein 16} expression [2]: 1.197
